Results taken from patent US20150320692A1 (UNIWERSYTET LÓDZKI, priority 2012, published 2015).

System: CLL cells (leukemic lymphocytes)
Assay: Assessment of mitochondrial membrane potential (CMXRos, flow cytometry)
Assay type: cell-based, human
Settings: for mean percentage of cells with lower mitochondrial potential (ΔΨm^low/Gly-A^−): 1.6 μM
From the text: Mitochondrial membrane potential is an early indicator of apoptosis. CMXRos, i.e. Chloromethyl-X-rosamine (the reagent's name by Mito Tracker Red CMXRos, Molecular Probes, USA), and a monoclonal antibody to glycophorin A conjugated with FITC (the reagent's name of Anti-Glycophorin A FITC by Dako, Denmark) were used for its assessment. CMXRos is a lipophilic cationic dye that accumulates in the mitochondrial matrix of viable cells when there is an electronegative load on the inner surface of the mitochondrial membrane. This asymmetric location of protons along the inner mitochondrial membrane leads to a high mitochondrial membrane potential (ΔΨm) in living cells. A decreased mitochondrial potential ΔΨm is one of the first symptoms of apoptosis during the process of induction, which results in lowering of the mitochondrial uptake of CMXRos.
The stock CMXRos solution was prepared by dilution of the substance supplied by the manufacturer in 94 μl DMSO (dimethylsulphoxide), and stored at […]. Then working solution was prepared also using DMSO (1:10) and stored at 4° C. Mononuclear cells, i.e. leukemic lymphocytes, at 1×10^6 MNCs/ml concentration, were incubated with CMXRos (2.5 μl working solution in 500 μl RPMI 1640 medium) at 37° C. for 30 minutes. […] The samples were next measured using flow cytometry. The percentage of cells not bound to anti-glycophorin A-FITC (ΔΨm^low/Gly-A^− cells), with low mitochondrial potential, was calculated.
All fluorescence measurements were performed by a flow cytometer FACSCalibur (Becton Dickinson, USA) equipped with an argon laser 488 nm and computer program CellQuestPro (Becton Dickinson, USA). Each time 10 000 cells were evaluated. The fluorescence was measured using standard emission filters: green—FL1 (wavelength λ=530±20 nm) and red—FL3 (>600 nm).

Row | Compound | mean percentage of cells with lower mitochondrial potential (ΔΨm^low/Gly-A^−) (24 h) [%] | mean percentage of cells with lower mitochondrial potential (ΔΨm^low/Gly-A^−) (48 h) [%] | apoptosis-inducing action (mitochondrial potential) compared with control (10 μg/ml, 24-hour cultures)
1 | Nc1nc(F)nc2c1ncn2[C@@H]1O[C@H](CO)[C@@H](O)[C@@H]1O [FA, fludarabine] | 52.05 | 74.49 | 
2 | rituximab |  |  | apoptosis-inducing action in order of spontaneous apoptosis
